# Measured values from ChEMBL document CHEMBL4325859, “Research advances on anticancer activities of matrine and its derivatives: An updated overview” (Eur J Med Chem, 2019).
# What was measured:
# SW480 [1] = experiment: Antitumor activity against human SW480 cells xenografted in Balb/c mouse assessed as tumor growth inhibition at 30 mg/kg, ip administered 2 times per week relative to control; assay type: functional; details: read-out: TGI
# HeLa = experiment: Growth inhibition of human HeLa cells by MTT assay; assay type: functional, cell-based
# A-375 = experiment: Growth inhibition of human A375 cells by MTT assay; assay type: functional, cell-based
# HepG2 = experiment: Antiproliferative activity against human HepG2 cells by MTT assay; assay type: functional, cell-based
# PANC-1 = experiment: Antiproliferative activity against human PANC1 cells by MTT assay; assay type: functional, cell-based
# HT-29 [2] = experiment: Antiproliferative activity against human HT-29 cells by MTT assay; assay type: functional, cell-based
# A-431 = experiment: Growth inhibition of human A431 cells at 120 umol/L by MTT assay relative to control; assay type: functional; details: read-out: GI
# SW480 [3] = experiment: Growth inhibition of human SW480 cells at 330 umol/L by MTT assay relative to control; assay type: functional; details: read-out: GI
# A549 = experiment: Growth inhibition of human A549 cells at 330 umol/L by MTT assay relative to control; assay type: functional; details: read-out: GI
# HT-29 [4] = experiment: Growth inhibition of human HT-29 cells at 1.25 ug/ml by MTT assay relative to control; assay type: functional; details: read-out: GI
# HT-29 [5] = experiment: Growth inhibition of human HT-29 cells at 2.5 ug/ml by MTT assay relative to control; assay type: functional; details: read-out: GI
# HT-29 [6] = experiment: Growth inhibition of human HT-29 cells at 5 ug/ml by MTT assay relative to control; assay type: functional; details: read-out: GI
# HT-29 [7] = experiment: Growth inhibition of human HT-29 cells at 10 ug/ml by MTT assay relative to control; assay type: functional; details: read-out: GI
Structure (SMILES),IC50 (HepG2),IC50 (PANC-1),IC50 (HT-29 [2]),further results
O=c1[nH]cc(F)c(=O)[nH]1 [FLUOROURACIL],–,–,–,inhibition in vivo at 30 mg/kg (SW480 [1]): 63.1%
CCCCOC(=O)CCC[C@@H]1[C@H]2CCCN3CCC[C@@H](CN1Cc1ccccc1)[C@@H]23,–,–,–,IC50 (HeLa): 304 µM; IC50 (A-375): 149 µM
O=C(CCC[C@@H]1[C@H]2CCCN3CCC[C@@H](CN1Cc1ccccc1)[C@@H]23)OCCOCCc1no[n+]([O-])c1S(=O)(=O)c1ccccc1,14.2 µM,–,–,–
COc1ccc(/C=C2\CC[C@@H]3[C@H]4CCCN5CCC[C@@H](CN3C2=O)[C@@H]45)c(OC)c1OC,–,13.2 µM,13.2 µM,–
O=C(CCC[C@@H]1[C@H]2CCCN3CCC[C@@H](CN1Cc1ccccc1)[C@@H]23)OCCCc1no[n+]([O-])c1S(=O)(=O)c1ccccc1,11.5 µM,–,–,–
COc1cc(/C=C2\CC[C@@H]3[C@H]4CCCN5CCC[C@@H](CN3C2=O)[C@@H]45)cc(OC)c1OC,–,9.05 µM,9.05 µM,–
O=C1C[C@@H](SC(=S)N2CCCCC2)C[C@@H]2[C@H]3CCCN4CCC[C@@H](CN12)[C@@H]34,–,–,–,inhibition of growth at 120 µM (A-431): > 94%; inhibition of growth at 330 µM (SW480 [3]): > 65%; inhibition of growth at 330 µM (A549): > 95%
O=C(CCC[C@@H]1[C@H]2CCCN3CCC[C@@H](CN1Cc1ccccc1)[C@@H]23)NCCc1no[n+]([O-])c1S(=O)(=O)c1ccccc1,8.02 µM,–,–,–
CCc1c2c(nc3ccc(OC(=O)N4CCC(N5CCCCC5)CC4)cc13)-c1cc3c(c(=O)n1C2)COC(=O)[C@]3(O)CC [IRINOTECAN],–,–,–,inhibition of growth at 1.25 µg/mL (HT-29 [4]): 22.9%; inhibition of growth at 2.5 µg/mL (HT-29 [5]): 37.4%; inhibition of growth at 5 µg/mL (HT-29 [6]): 54.7%; inhibition of growth at 10 µg/mL (HT-29 [7]): 59.3%
O=C(CCC[C@@H]1[C@H]2CCCN3CCC[C@@H](CN1Cc1ccccc1)[C@@H]23)OCCc1no[n+]([O-])c1S(=O)(=O)c1ccccc1,11.4 µM,–,–,–
COc1ccc(/C=C2\CC[C@@H]3[C@H]4CCCN5CCC[C@@H](CN3C2=O)[C@@H]45)cc1,–,27.8 µM,27.8 µM,–
COc1ccc(/C=C2\CC[C@@H]3[C@H]4CCCN5CCC[C@@H](CN3C2=O)[C@@H]45)cc1OC,–,18 µM,18 µM,–
